The source of these data is patent US12611443B2, “Methods and compositions related to therapeutic peptides for cancer therapy” (THE UNIVERSITY OF CHICAGO, priority 2018, dated 2026).

For data set [1], the system named is human/murine cancer cells. Kind of data set: In vitro cell viability of cancer cells (calcein-AM, CASP3, ANXA5). Type of data set: cell-based. The settings on record: ELANE 3 μg/ml. The text has this:
Cell lines. The ovarian cancer cell lines—CAOV3, OVCAR3, OVCAR4, OVCAR5, A2780, A2780/CP70, HeyA8, TykNu, SKOV3, ID8, and ID8p53-/- were a gift from Dr. Ernst Lengyel, University of Chicago. The breast cancer cell lines—MDA-MB-231, MDA-MB-231.BM1, MCF-7, M6C, E0771, and E0771.LMB were a gift from Dr. Marsha Rosner, University of Chicago. The colon carcinoma cell line RKO, glioblastoma cancer cell line T98G, osteosarcoma cell lines U-2OS and Saos-2, and the hepatocellular carcinoma cell line HepG2 were a gift from Dr. Kay McLeod, University of Chicago. The lung cancer cell line NCI-H552 was a gift from Dr. Stephanie Huang, University of Chicago, and A549 and LLC1 cells were purchased from ATTC. The melanoma cell lines—B16F10, Mel888, Mel1106, and SK-MEL-28 cells were a gift from Dr. Thomas Gajewski, University of Chicago. The pancreatic cancer cell line PANC1 was a gift from Dr. Yamuna Krishnan, University of Chicago. The leukemia cell line K562 was a gift from Dr. Amittha Wickrema, University of Chicago.
The prostate cancer cell lines—CWR22Rv1, LAPC4, and LNCaP were a gift from Dr. Donald Vander Griend, University of Chicago. The neuroblastoma cell lines—SK-N-BE(2) and NBL-WN cells were a gift from Dr. Lucy Godley, University of Chicago.
Neutrophil media collections. Freshly isolated human or murine neutrophils were plated in serum-free DMEM for 24 h. Conditioned media was collected, spun at 500×g for 5 min, and media protein levels were determined with a Bradford assay (Biorad).
PMN media manipulations. For boiling, PMN media was boiled at 95° C. for 5 min and spun at 15,000×g for 10 min to remove precipitated proteins. For dialysis, PMN media was placed into a Slide-a-Lyzer™ cassette (3.5 kDa cutoff, ThermoFisher Scientific) and dialyzed against 2×4L of PBS at 4° C. for 4 h. For PMSF-inactivation, PMN media was treated with PMSF (1 mM, Sigma) or A1AT (42 nM, Athens Research & Technology) and incubated at room temperature for up to 2 h. Residual PMSF was eliminated with a PD-10 desalting column (GE Healthcare Life). Inhibition of ELANE catalytic activity was confirmed using a chromogenic substrate activity assay (see below). For serum-spiking experiments, human, mouse, or fetal bovine serum (1% or 10%) was added to PMN media prior to or after exposing cancer cells. For immune-depletion studies, ELANE or ECP were immunoprecipitated using anti-ELANE (N2C3, GeneTx) or anti-ECP (MB S2535165, MyBioSource) coupled to Pierce™ Protein A/G Magnetic Beads (ThermoFisher Scientific).
(§1) In vitro cell viability assays. […] Luminescence was measured using a Victor X3 luminometer (PerkinElmer).

Data set [2] deals with Human monocyte-derived macrophages (HMDMs). The experiment in a line: Cell viability of HMDMs treated with purified ELANE or ECP. The format is cell-based. How it is done: Primary human blood-derived cells.
as §1

Data set [3] has as its system E0771 and B16F10 1° and 2° tumors. Kind of data set: Abscopal effect studies. Type of data set: in vivo, C57BL/6 mice. How it is done: Abscopal effect studies. For the E0771 model, 0.5×10^6 cells were injected into the 4th mammary fat pad of the right ventral side (1° tumor) and 0.4×10^6 cells were injected into the 4th mammary fat pad of the left ventral side (2° tumor) of C57BL/6 mice. Once the 1° tumor reached ˜100 mm^3, ELANE or PMSF-ELANE (11.6 μg/100 μL) were injected IT into the 1° tumor once/day for 5 days, and 1° and 2° tumor volumes were measured by calipers. For the B16F10 model, 0.5×10^6 cells were injected into the flank (1° tumor). 7 days later, 0.2×10^6 cells were injected into the lateral tail vein to create 2° lung metastases. Once the 1° tumor reached ˜100 mm^3, ELANE or PMSF-ELANE (11.6 μg/100 μL) were injected IT into the 1° tumor once/day for 5 days, and the 1° tumor volume was measured by calipers. Lungs were excised 10 days after the final ELANE treatment, and 2° lung metastases were counted. For CD8^+ T cell depletion, anti-mouse CD8α (clone 2.43, Bio X Cells) or rat IgG2b (isotype control, Bio X Cells) were injected IV (200 μg/injection) 3 days before the first ELANE treatment, and once/week after the last ELANE treatment. CD8^+ T cell depletion was confirmed by flow cytometry.
For the ‘spillover control’, 0.5×10^6 E0771 cells were injected into the 4th mammary fat pad of the left ventral side (2° tumor). ELANE or PMSF-ELANE (11.6 μg/100 μL) were injected into the tumor-free 4th mammary fat pad of the right ventral side pad once/day for 5 days, and 2° tumor volume was measured by calipers.
For the ‘specificity control’, 0.5×10^6 E0771 cells were injected into the into the 4th mammary fat pad of the right ventral side (1° tumor) and 7 days later, 1×10^6B16F10 cells were injected into the flank (2° tumor). Once the 1° tumor reached ˜100 mm^3, ELANE or PMSF-ELANE (11.6 μg/100 μL) were injected IT into the 1° tumor once/day for 5 days, and 1° and 2° tumor volumes were measured by calipers.

The subject of data set [4] is E0771 or MEL888 tumors. The experiment in a line: Resistance to ELANE, repeated treatment of tumors in vivo and killing ex vivo. Also noted: species or system mice. The settings on record: once/day for 7 days, isolated cancer cells ex vivo. The source says:
To explore whether cancer cells could acquire resistance to ELANE, a combination of in vitro and in vivo approaches were used.

Regarding “ELANE: neutrophil elastase, a serine protease released by human PMNs”, the “apoptosis in cancer cell lines” value in data set [1] is listed as “effectively induced apoptosis in all cancer cell lines tested”. Besides, in data set [2], the “cell viability, purified protein” value is given as “did not kill Human monocyte-derived macrophages (HMDMs)”. Further, the “number of 2° lung metastases” value in data set [3] (1° B16F10 tumor treated, 12 μg/day for 5 days) was “lowered the number of lung metastases”. For the same substance, the “tumorigenesis in 2° B16F10 tumor (specificity control)” value in data set [3] (1° E0771 tumor treated) was “did not impact tumorigenesis in a 2° B16F10 tumor”. Besides, the “tumorigenesis at 1° and 2° E0771 tumors” value in data set [3] (1° tumor treated, 12 μg/day for 5 days) was “attenuated tumorigenesis at both sites”. Also, in data set [3] (both models), the “abscopal effect after depleting CD8+ T cells” value is “attenuated ELANE's abscopal effect in both models”. In data set [3] (opposite the tumor, tumor-bearing mice), the “tumorigenesis after injection into contralateral site” value is given as “failed to attenuate tumorigenesis”. In addition, in data set [4], the “acquired resistance after repeated treatment in vivo” value was “did not attenuate ELANE's ability to kill the isolated cancer cells ex vivo”.
